Results: patent US20110212100A1, “METHODS FOR MODULATING DEVELOPMENT AND EXPANSION OF IL-17 EXPRESSING CELLS” (priority 2007, published 2011)
Several values for one entry are separate records, joined by “and”; a condition that tells them apart may be missing. Equal entries are not always repeated.

Key:
[1] = human, in vivo; cited from earlier work
[2] = test system: FoxP3 expression in CD4+ CD25− T cells; assay: Foxp3 (Treg marker) expression in TGFβ/IL-6 treated T cells; type: cell-based, mouse
Description: Low doses of halofuginone (HF) were tested to determine the ability of HF to enhance Treg differentiation, while suppressing Th17 differentiation. Nave. CD4+ T cells (CD4+ CD25−) were isolated from the spleen and peripheral lymph nodes of C57B/6 mice. T cells were then activated using anti-CD3 (0.3 μg/ml) and anti-CD28 (0.5 μg/ml) antibodies either in media alone (row 1, 4), TGFβ alone (3 ng/ml—row 2, 5) or TGFβ (3 ng/ml) plus IL-6 (30 ng/ml) (row 3, 6). […] T cells were cultured for 3 days and CD25 and Foxp3 expression (Treg marker genes) was determine by FACS staining and flow cytometric analyses. Simultaneously, T cells were harvested and re-stimulated for 4 hours using phorbol myristic acetate (PMA; 10 nM), Ionomycin (1 μM) and cytokine secretion was prevented using brefeldin A (20 μg/ml). Following stimulation, the production of IL-17 and IFNγ were determined by intracellular staining and analyzed via flow cytometry. […]
FACS analyses and sorting: All cell surface staining was performed in FACS buffer (PBS/2% FCS/0.1% NaN3) and antibodies were incubated with cells on ice for 20-30 minutes. […] All FACS data was acquired on a FACSCalibur flow cytometer (BD Pharmingen) and analyzed using FlowJo software (Treestar, Inc., Ashland, Oreg.). […]

RORγt = RORγt expression during Th17 differentiation (real-time PCR); type: cell-based, mouse; settings: 10 nM HF
Description: T cells were harvested at the indicated times following activation, RNA was isolated and quantitative real-time PCR was performed using RORγt-specific primers and taqman probe. RORγt expression was normalized to Gapdh levels, and the data are presented as fold changes relative to naïve T cells.
Quantitative real-time PCR: T cells were activated as described above, collected at the indicated times and pellets were flash-frozen in liquid nitrogen. Total RNA was obtained by RNeasy (Quiagen, Valencia, Calif.) column purification per manufacturers instructions. RORγt expression was determined after reverse transcription using the message sensor kit (Ambion, Austin, Tex.) per manufacturers instructions and taqman primers and probe as described elsewhere (I. Ivanov, et al., Cell 126, 1121, 2006). Sybrgreen quantitative real-time PCR was performed on T cell RNA samples following reverse transcription via SuperScript II first-strand cDNA synthesis kit (Invitrogen, Carlsbad, Calif.). All PCR data was collected on an iCycler thermal cycler (Biorad, Hercules, Calif.). Primer sequences used for detecting stress response genes are listed below.

primary T cells = type: cell-based
Description: The non-specific cytoxicity of HF in both normal and transformed T-cells at high doses was evaluated. Anti-CD3/anti-CD28 activated primary T cells were harvested 6 days after activation and cultured in the presence of IL-2 with or without HF (100 nM). As a positive control, some T cells were cultured without IL-2 to induce apoptosis (FIG. 3A). Jurkat T cells, a transformed T cell leukemia line, were cultured in complete medium with or without HF (100 nM) as indicated (FIG. 3B). Both primary and Jurkat T cells were cultured for 30 hours and programmed cell death, i.e. apoptosis, was determined by Annexin V staining and propidium iodide (PI) uptake and cells were analyzed by flow cytometry. The percent of apoptotic T cells at each time point was plotted and was defined as Annexin V^+ PI^−. […] In further experiments, titrating amounts of HF were added to primary T cells and apoptosis was determine as above at the indicated time points. At 100 nM HF, but not 30 nM or lower, generalized T-cell apoptosis was observed (FIG. 3C).

## O=C(CC1NCCCC1O)Cn1cnc2cc(Br)c(Cl)cc2c1=O (racemic) [HF, 7-bromo-6-chloro-3-[3-(3-hydroxy-2-piperidinyl)-2-oxopropyl]-4(3H)-quinazolinone]
[1]
  HF in serum during topical treatment, in words: undetectable in serum
[2]; 10 nM HF, TGFβ plus IL-6, day 3
  Foxp3 expression of T cells differentiated in the presence of HF, in words: enhanced Foxp3 expression
[2]; TGFβ/IL-6 treated T-cells
  concentration increasing FoxP3 expression concomitantly with inhibiting IL-17 expression: 2.5 to 10 nM and 2.2 to 10 nM
RORγt
  effect on upregulation of RORγt or RORγ during Th17 differentiation, in words: did not interfere with the upregulation of RORγt or RORγ
Primary T cells
  concentration at which generalized T-cell apoptosis was not observed: ≤ 0.03 µM
  concentration at which generalized T-cell apoptosis was observed: 0.1 µM
